Earlier results in US11883378B2, “Hydrogel formulations and methods and devices for focal administration of the same” (Pykus Therapeutics, Inc., priority 2021, dated 2024).
≈ marks a conversion by molar mass, not a printed value.

VEGF, sequence (P15692 207-311 limits assumed): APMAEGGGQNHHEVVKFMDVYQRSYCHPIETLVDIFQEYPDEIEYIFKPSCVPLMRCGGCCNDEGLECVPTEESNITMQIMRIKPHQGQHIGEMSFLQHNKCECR

Compound	solubility in water [µg/mL]	tolerability of intravitreal injection (VEGF; dose of 1.25 mg)	effective dose in the vitreous (VEGF; maintained by monthly repetitive intravitreal injections) [µg/mL]
C=CC[C@@H]1/C=C(\C)C[C@H](C)C[C@H](OC)[C@H]2O[C@@](O)(C(=O)C(=O)N3CCCC[C@H]3C(=O)O[C@H](/C(C)=C/[C@@H]3CC[C@@H](O)[C@H](OC)C3)[C@H](C)[C@@H](O)CC1=O)[C@H](C)C[C@@H]2OC [Tacrolimus]	~1 (≈ 1.24 µM)	–	–
Bevacizumab: anti-VEGF monoclonal antibody (large protein) with a molecular weight of ~150 kD	–	well tolerated	~1
